Experimental data: PubChem BioAssay AID1902 (Broad Institute, 2009)
Activity calls are given as the source filed them.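 The calls were made as follows: active = EC50 no more than a set limit of log units above the highest dose; inactive = the rest.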

The compounds below were run against S. pyogenes SKKanGAS, kanamycin survival, BacTiterGlo, 6 h (assay: SKKanGAS survival reduction under kanamycin, dose response, streptokinase promoter inhibitor project, SKKanGAS strain, luminescence, dose confirmation (AID 1902);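 also: lower survival reflects blocked streptokinase promoter driving kanamycin resistance gene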).

Structure (SMILES) | EC50
CN(C)c1ccc(C2C=C(c3ccc(Cl)cc3OC(F)F)Nc3ncnn32)cc1 (stereo not drawn) | 10.8 µM
Cc1ccccc1OCC(=O)NNC(=S)NC(=O)c1ccco1 | 0.338 µM
COc1ccc(C2/C=C\CN(C(=O)c3ccccc3)CC(=O)N2Cc2ccc(F)cc2)cc1 (stereo not drawn) | > 15 µM (inactive)
O=C(CC1CCCCC1)c1c(O)c2ccccc2oc1=O | 3.54 µM
CC(=O)N1CCN(c2ccccc2NC(=O)c2cccs2)CC1 | > 15 µM (inactive)
CC(=O)c1ccc(N2CCC(c3cc(-c4ccc(Cl)cc4Cl)n[nH]3)CC2)c([N+](=O)[O-])c1 | 2.15 µM
Cc1ccc(-c2nc3cc(NS(=O)(=O)c4ccc(C)cc4)ccc3o2)cc1 | 6.28 µM
N#C/C(=C(/O)Cc1cccc2ccccc12)c1nc2ccccc2s1 | 1.36 µM
CC(C)n1cnc2c(NCc3ccccc3)nc(NCc3ccccc3)nc21 | 3.06 µM
O=C(COc1ccc(Cl)cc1Cl)NNC(=S)NC(=O)c1ccco1 | 0.102 µM
COc1ccc(-c2cc(C3CCN(Cc4cccc(C(F)(F)F)c4)CC3)[nH]n2)cc1 | 9.26 µM
COc1ccccc1C(NC(C)=O)c1cc(Cl)c2cccnc2c1O (stereo not drawn) | 2.91 µM
Cc1ccc2ccc(C(Nc3ccccn3)c3ccccc3)c(O)c2n1 (stereo not drawn) | 0.705 µM
Clc1ccccc1Sc1ccc(-c2ccccn2)s1 | 5.48 µM
COc1ccc(C(=O)NC(=S)NNC(=O)c2ccco2)cc1 | 4.48 µM
CCCc1cc(=O)n2[nH]c(C)c(-c3ccc(Cl)cc3)c2n1 | 5.81 µM
COC(=O)/C=C1\SC(=Nc2ccc(Cl)c(Cl)c2)NC1=O | 8.93 µM
CC(/C=C/C=C/c1ccccc1)=N/NC(=O)c1ccc2c(c1)OCCO2 | > 15 µM (inactive)
Cc1cc(NC(=O)c2c(F)cccc2Cl)n(-c2nc3ccccc3[nH]2)n1 | 8.04 µM
COc1ccc(O)c(C(=O)c2cc(SCC(=O)O)c3nc4sc5c(c4c(=O)n3c2)CCCC5)c1 | 4.1 µM
O=[N+]([O-])c1ccc(N2N=C(c3ccccc3)CC2c2ccccc2O)cc1 (stereo not drawn) | 2.25 µM
O=C(NNC1=C(C(=O)C(F)(F)F)CCC1)c1cccc(Cl)c1 | 0.931 µM

Structure (SMILES) | EC50
O=C(OCc1ccc(-c2ccccc2)cc1)c1cccc(O)c1 | 6.29 µM
O=S(=O)(Nc1ccc(-n2cccc2)cc1)c1ccc(Cl)c(Cl)c1 | 6.21 µM
Cc1ccc2sc(NNC(=O)c3cc(=O)c4ccccc4o3)nc2c1C | 1.18 µM
O=C(Nc1nnc(C2CCCCC2)s1)c1ccc(Br)s1 | 3.99 µM
Cc1[nH]n(-c2ccc(Cl)cc2)c(=O)c1/C=N/n1c(C)nc2ccccc2c1=O | 1.44 µM
CC(C)Oc1ccc(C(=O)Nc2nnc(C3=COCCO3)o2)cc1 | 0.794 µM
Oc1cccc2ccc(/C=C/c3cccs3)nc12 | 2.91 µM
COc1cc2ccccc2cc1C(=O)Nc1ccc(NC(=O)c2cccs2)cc1 | 6.02 µM
CCOC(=O)c1sc2ncnc(N3CCN(c4ccc(OC)cc4)CC3)c2c1C | 10.3 µM
CCc1ccc(/C=N/n2c(C3CCCCC3)n[nH]c2=S)cc1 | 7.16 µM
O=C(Nc1cccc(Cl)c1)Nc1cc(S(=O)(=O)N2CCCCC2)ccc1Cl | 7.75 µM
COc1ccccc1CN1CC(C(=O)NCc2ncccc2C)CCC1=O (stereo not drawn) | > 15 µM (inactive)
Cc1ccc(NC(=S)c2nc3ccccc3[nH]2)cc1 | 1.08 µM
O=C(NNC(=S)NC(=O)c1ccccc1)c1cccc([N+](=O)[O-])c1 | 5.82 µM
Cc1ccccc1OCCCCc1c(C)n[nH]c1C | 7.37 µM
O=C(NNC(=O)c1ccccc1OCc1ccccc1Cl)c1csc(N2CCOCC2)n1 | 5.04 µM
Cc1ccc2nc(N3C(=O)C(O)=C(C(=O)c4cc5ccccc5o4)C3c3cccs3)sc2c1 (stereo not drawn) | 1.22 µM
O=C(CSc1nnc(CNC(=O)c2c(F)cccc2F)o1)NCc1ccccc1 | > 15 µM (inactive)
COc1ccc(C(=O)/C=C/c2ccc(-c3ccccc3)cc2)cc1CSCC(=O)O | 5.51 µM
CCC(C)Sc1cc(-c2nc3ccc(C)cn3c2NCc2ccccc2)ccc1OC (stereo not drawn) | 1.42 µM
COc1ccc(O)c(CN2CCC(n3nccc3NC(=O)CCOc3ccccc3)CC2)c1 | > 15 µM (inactive)
C[C@H]1COc2c(C3(N)CC3)c(F)cc3c(=O)c(C(=O)O)cn1c23 | 6.2 µM

Structure (SMILES) | EC50
COC(=O)c1ccc(CSc2cc(C)c3cc(C)cc(C)c3n2)o1 | 4.86 µM
O=C(NCc1nnc(SCC(=O)N2CCOCC2)o1)c1c(F)cccc1F | > 15 µM (inactive)
COC12C(COC(N)=O)C3=C(C(=O)C(C)=C(N)C3=O)N1CC1C2N1C (stereo not drawn) | < 0.06 µM
O=C(c1cc(-c2cccs2)nc2ccccc12)N1CCN(c2ccccc2O)CC1 | 13.4 µM
CC(C)=CCC12Oc3cc(O)ccc3C1(O)Oc1cc3c(c(O)c1C2=O)C=CC(C)(C)O3 (stereo not drawn) | 2.4 µM
CC1CCCCC1NC(=O)CCn1ccc2cc(S(=O)(=O)N3CCCC3)ccc21 (stereo not drawn) | > 15 µM (inactive)
O=C(Nc1ccc2c(c1)CCC2)c1cc(S(=O)(=O)Nc2ccc(F)cc2)c(Cl)cc1Cl | 4.04 µM
Cc1ccc(C[n+]2c(-c3ccc(C)cc3)cc(-c3ccc(C)cc3)cc2-c2ccc(C)cc2)cc1 | 4.06 µM
Nc1nc(Nc2ccc(Cl)cc2)nc(NCc2ccco2)c1[N+](=O)[O-] | 6.56 µM
COc1cc(-c2c(C#N)c(N)nc3c2c(C)nn3-c2ccc(C)c(C)c2)cc(OC)c1OC | 4.53 µM
Cc1cc(NC(=S)N(Cc2ccc(Cl)cc2)Cc2ccc(C(=O)O)cc2)ccc1Cl | 6.93 µM
N=C1SCC(=O)N1c1ncc(Cc2cccc(Cl)c2)s1 | 0.145 µM
Oc1cccc(/C=N/N(Cc2ccccc2)c2ccccc2)c1 | 6.02 µM
O=C(Nc1ccccc1Cl)/C(Cl)=C(\Cl)S(=O)c1ccccc1 (stereo not drawn) | 1.98 µM
Cn1c(CNC(=O)CNC(=O)c2ccc(F)cc2)cc(=O)n(C)c1=O | > 15 µM (inactive)
O=C(O)c1ccc(N2CCCCS2(=O)=O)cc1 | > 15 µM (inactive)
COc1cc(N=c2c([N+](=O)[O-])nn(-c3ccc4c(c3)OCCO4)n2O)cc(OC)c1 | 5.24 µM
CC(C)c1ccc(N2C(=O)/C(=C/N(C)C)SC2=S)cc1 | 4.7 µM
Cc1cc(C)cc(C(=O)N2CCC(CCC(=O)NC3CC3)CC2)c1 | > 15 µM (inactive)
CCCCCCCCCCCCN1[C@@H](CC(=O)O)c2cc(C(F)(F)F)ccc2S1(=O)=O | 2.44 µM
COc1ccc(Cl)cc1C(=O)NNC(=S)NC(=O)c1cc(-c2ccc(Cl)cc2)nc2ccccc12 | 0.254 µM
Nc1nonc1-n1nnc(C(=O)N/N=C/c2cc(Cl)ccc2O)c1CN1CCCCCC1 | 5.76 µM

Structure (SMILES) | EC50
CCCCCCCCCc1nc2sc3c(c2c(=O)n1NC(=O)c1ccc([N+](=O)[O-])cc1)CC(C)(C)OC3 | 3.5 µM
Cc1ccc(C2C(/C=C3/SC(=S)NC3=O)=C(c3cccs3)Oc3ccccc32)cc1 (stereo not drawn) | 0.643 µM
CC(=O)NS(=O)(=O)c1ccc(N=c2ssc3c2-c2ccc(C)cc2NC3(C)C)cc1 | 2.92 µM
CCSc1nsc(NC(=O)Nc2cccc(F)c2)n1 | 7.63 µM
O=[N+]([O-])c1c(Nc2cccc(O)c2)cc(Cl)c2nonc12 | 6.5 µM
Cc1cc(N2CCN(c3ccccc3Cl)CC2)n2cc(-c3ccccc3)nc2n1 | 6.63 µM
CCOC(=O)N1CCN(C(=O)c2ccc3c(c2)NC(=O)/C(=C\c2ccc(OC)c(OC)c2)S3)CC1 | 1.1 µM
Cc1ccc(S(=O)(=O)Nc2cc(Cl)c(O)c3ncccc23)cc1 | 7.11 µM
COc1ccc(NC2=NCC(Cc3ccc(Br)cc3)S2)cc1 (stereo not drawn) | 11.9 µM
COc1ccc2ncc(S(=O)(=O)c3ccccc3)c(N3CCN(c4ccccc4)CC3)c2c1 | 3.19 µM
FC(F)Oc1ccccc1C1CC(c2ccc(Br)s2)Nc2ncnn21 (stereo not drawn) | 2.83 µM
COc1ccccc1CNC(=O)c1ccc(-c2ccccc2Cl)o1 | 9.96 µM
Cc1ccc(C(=O)N/N=C/c2ccc([N+](=O)[O-])s2)cc1 | 14 µM
Clc1ccc2c(N/N=C/c3ccc(Br)cc3)ccnc2c1 | 3.14 µM
O=C(CSc1nnc(CNC(=O)c2ccccc2)o1)NCCc1ccccc1 | > 15 µM (inactive)
C=C(C)CNC(=S)NNC(=O)CCn1c2ccc(Cl)cc2c2cc(Cl)ccc21 | 2.31 µM
Cc1ccccc1OCCCc1c(C)n[nH]c1C | 1.09 µM
COc1ccccc1-c1cn[nH]c1-c1ccc(OCc2ccc(F)cc2)cc1O | 10.8 µM
COc1cccc(C(=O)Nc2nc(-c3ccccc3)c(-c3ccccc3)o2)c1 | 0.881 µM
Oc1c(Br)cc(Br)cc1CNc1cccc2cccnc12 | 4.47 µM
CC(C)=CCc1c2c(c(O)c3c(=O)c4c(oc13)-c1cc(O)c(O)cc1OC4C=C(C)C)C=CC(C)(C)O2 (stereo not drawn) | 1.88 µM
CCN1/C(=C/C(C)=C/c2sc3ccccc3[n+]2CC)Sc2ccccc21 | 2.03 µM

Structure (SMILES) | EC50
O=C(NC1=NCCS1)c1cc(-c2ccccc2)nn1-c1ccccc1 | 6.06 µM
Nc1c(C(=O)Nc2nc3ccccc3s2)sc2nc(-c3cccs3)ccc12 | 6.67 µM
CCOc1cc(-c2cc(-c3ccc(NC(C)=O)cc3)nc(N)c2C#N)ccc1O | 0.919 µM
O=C(Nc1cccc(-c2csc(Nc3ccc(Cl)cc3)n2)c1)c1ccccc1 | 4.45 µM
Cc1ccc(Nc2cc(C)nn2-c2nc(C)cc(=O)[nH]2)cc1 | < 0.06 µM
CC(C)(C)c1cc(NCCCn2ccnc2)n2ncc(-c3ccc(Cl)cc3)c2n1 | 2.38 µM
CCN(c1ccccc1)S(=O)(=O)c1ccc(C(=O)Nc2nnc(-c3ccco3)o2)cc1 | 2.04 µM
O=S(=O)(Nc1ccc(-c2csc(-c3ccccc3)n2)cc1)c1ccc(F)cc1 | 1.92 µM
CCN(CC)c1ccc(-n2cc3c(=O)n(C)c(=O)n(C)c3c2)cc1 | 3.43 µM
COc1cccc(C(=O)NC(=S)N2CCN(c3ccc(C(F)(F)F)cc3[N+](=O)[O-])CC2)c1 | > 15 µM (inactive)
COc1ccc(/C=N/n2c(-c3cccs3)n[nH]c2=S)cc1 | 14.3 µM
CN(C)/C=C1\SC(=S)N(c2ccc(Br)cc2)C1=O | 5.37 µM
Cn1cc(C(=O)c2ccc(Cl)cc2Cl)cc1C(=O)N/N=C(\N)COc1cccc(C(F)(F)F)c1 | 3.22 µM
CC1CC(C)(C)n2c(O)c(N=NC(N)=S)c3cccc1c32 (stereo not drawn) | 4.84 µM
CCCC(=O)NC(c1ccc(Cl)cc1)c1ccc2cccnc2c1O (stereo not drawn) | 7.2 µM
CC12CCC(C(=O)N(CSC(=S)N/N=C\c3ccccc3O)C1=O)C2(C)C (stereo not drawn) | 2.55 µM
O=C(Nc1ccccc1)Nc1cc(Cl)cc(Cl)c1 | 6.8 µM
O=C(/C=C/c1ccc([N+](=O)[O-])o1)NNC(=O)c1ccc(F)cc1 | 1.8 µM
CCOC(=O)c1ccc(NC2=CC(=O)C(=O)c3ccccc32)cc1 | 3.48 µM
O=C(c1ccccc1)c1cc2ccc(O)cc2oc1=O | 6.03 µM
